Our source for the IC50 values is patent US20240246967A1, “AXL COMPOUNDS” (ARCUS BIOSCIENCES, INC., priority 2021, published 2024).

The structures appear in SMILES notation.

The assay addresses T1, human TYRO3 (Homo sapiens, UniProt Q06418).
T1 construct: purchased Invitrogen
T1 sequence (Q06418 41-890): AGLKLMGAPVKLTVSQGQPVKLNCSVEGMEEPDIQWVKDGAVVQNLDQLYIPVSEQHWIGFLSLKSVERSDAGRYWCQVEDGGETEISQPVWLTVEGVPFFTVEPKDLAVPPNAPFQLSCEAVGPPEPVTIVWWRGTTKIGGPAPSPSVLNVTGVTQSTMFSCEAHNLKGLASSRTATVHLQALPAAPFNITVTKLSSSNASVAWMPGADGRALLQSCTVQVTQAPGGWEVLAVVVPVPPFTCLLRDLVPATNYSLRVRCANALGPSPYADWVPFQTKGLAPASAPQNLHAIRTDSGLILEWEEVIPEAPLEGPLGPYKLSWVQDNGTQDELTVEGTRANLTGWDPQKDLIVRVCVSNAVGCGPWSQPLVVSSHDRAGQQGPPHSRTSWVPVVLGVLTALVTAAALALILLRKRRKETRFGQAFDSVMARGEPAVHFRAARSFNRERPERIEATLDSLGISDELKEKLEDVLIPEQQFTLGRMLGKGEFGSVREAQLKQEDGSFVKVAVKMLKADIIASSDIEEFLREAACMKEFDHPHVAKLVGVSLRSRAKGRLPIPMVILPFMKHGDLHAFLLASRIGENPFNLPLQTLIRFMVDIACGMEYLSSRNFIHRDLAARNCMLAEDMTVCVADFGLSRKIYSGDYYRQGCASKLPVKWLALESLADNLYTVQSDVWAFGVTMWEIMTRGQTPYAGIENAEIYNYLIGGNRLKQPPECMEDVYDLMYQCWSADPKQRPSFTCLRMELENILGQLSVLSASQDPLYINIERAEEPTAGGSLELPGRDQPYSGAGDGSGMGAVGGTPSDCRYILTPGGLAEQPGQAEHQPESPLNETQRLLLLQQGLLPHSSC
Nature of the assay: HTRF KinEASE-TK biochemical potency assay, TYRO3. To be noted: 1 nM TYRO3, 700 μM ATP, 800 nM TK Substrate-biotin. In a few lines:
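Enzyme (final 5 nM AXL; 1 nM TYRO3 or MER) plus compound, 1 h RT → add biotinylated TK substrate (800 nM final) and ATP (700 μM final) → 2 h RT → stop into HTRF detection mix → read 665/620 nm. Activity normalised to DMSO and pre-stopped blanks.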
On the technique in general: TR-FRET usually uses a lanthanide donor and a delayed reading to cut background.
As to `Cc1cc(-c2n[nH]c3ncc(-c4ccc5c(c4)CC[C@@H](N4CCCC4)CC5)cc23)cc(F)c1C(N)=O` [Example 83, (S)-2-Fluoro-6-methyl-4-(5-(7-(pyrrolidin-1-yl)-6,7,8,9-tetrahydro-5H-benzo[7]annulen-2-yl)-1H-pyrazolo[3,4-b]pyridin-3-yl)benzamide], the IC50 (commonly the concentration that inhibits the measured activity by half) is under 100 nM.
`NC(=O)c1ccc(-c2n[nH]c3ncc(-c4ccc5c(c4)CC[C@@H](N4CCCC4)CC5)cc23)cc1Cl` [Example 84, (S)-2-Chloro-4-(5-(7-(pyrrolidin-1-yl)-6,7,8,9-tetrahydro-5H-benzo[7]annulen-2-yl)-1H-pyrazolo[3,4-b]pyridin-3-yl)benzamide] came in with an IC50 of under 100 nM.
`O=C(c1ccc(-c2n[nH]c3ncc(-c4ccc5c(c4)CC[C@@H](N4CCCC4)CC5)cc23)cc1Cl)N1CCC(O)CC1` [Example 85, (S)-(2-Chloro-4-(5-(7-(pyrrolidin-1-yl)-6,7,8,9-tetrahydro-5H-benzo[7]annulen-2-yl)-1H-pyrazolo[3,4-b]pyridin-3-yl)phenyl)(4-hydroxypiperidin-1-yl)methanone] returned an IC50 of under 100 nM.
On to `COc1cc(-c2n[nH]c3ncc(-c4ccc5c(c4)CCC(C)(N4CCC[C@H]4C)CC5)cc23)ccc1S(N)(=O)=O` (stereo partly drawn) [Example 87, 2-Methoxy-4-(5-(7-methyl-7-((R)-2-methylpyrrolidin-1-yl)-6,7,8,9-tetrahydro-5H-benzo[7]annulen-2-yl)-1H-pyrazolo[3,4-b]pyridin-3-yl)benzenesulfonamide], for which the IC50 fell in the range of 100 to 1000 nM.
The value for `C[C@@H]1CCCN1C1(C)CCc2ccc(-c3cnc4[nH]nc(-c5ccc(C(=O)NC6CCOCC6)cc5)c4c3)cc2CC1` (stereo partly drawn) [Example 88, 4-(5-(7-Methyl-7-((R)-2-methylpyrrolidin-1-yl)-6,7,8,9-tetrahydro-5H-benzo[7]annulen-2-yl)-1H-pyrazolo[3,4-b]pyridin-3-yl)-N-(tetrahydro-2H-pyran-4-yl)benzamide] was 100 to 1000 nM; that for `COC1CCN(C(=O)c2ccc(-c3n[nH]c4ncc(-c5ccc6c(c5)CCC(C)(N5CCC[C@H]5C)CC6)cc34)cc2)CC1` (stereo partly drawn) [Example 89, (4-Methoxypiperidin-1-yl)(4-(5-(7-methyl-7-((R)-2-methylpyrrolidin-1-yl)-6,7,8,9-tetrahydro-5H-benzo[7]annulen-2-yl)-1H-pyrazolo[3,4-b]pyridin-3-yl)phenyl)methanone] was 100 to 1000 nM; that for `Cc1cc2c(cc1-c1cnc3[nH]nc(-c4ccc(C(C)(C)O)c(Cl)c4)c3c1)CCC(N1CCC[C@H]1C)CC2` (stereo partly drawn) [Example 90, 2-[2-Chloro-4-(5-{3-methyl-7-[(2R)-2-methylpyrrolidin-1-yl]-6,7,8,9-tetrahydro-5H-benzo[7]annulen-2-yl}-1H-pyrazolo[3,4-b]pyridin-3-yl)phenyl]propan-2-ol] was over 1000 nM.
The value for `NS(=O)(=O)c1ccc(-c2n[nH]c3ncc(-c4ccc5c(c4)CC[C@@H](N4CCCC4)CC5)cc23)cc1Cl` [Example 91, (S)-2-Chloro-4-(5-(7-(pyrrolidin-1-yl)-6,7,8,9-tetrahydro-5H-benzo[7]annulen-2-yl)-1H-pyrazolo[3,4-b]pyridin-3-yl)benzenesulfonamide] was under 100 nM; that for `NS(=O)(=O)c1ccc(-c2n[nH]c3ncc(-c4ccc5c(c4)CCN(C4CCCC4)CC5)cc23)cc1Cl` [Example 92, 2-Chloro-4-(5-(3-cyclopentyl-2,3,4,5-tetrahydro-1H-benzo[d]azepin-7-yl)-1H-pyrazolo[3,4-b]pyridin-3-yl)benzenesulfonamide] was 100 to 1000 nM; that for `C[C@@H]1CCCN1C1(C)CCc2ccc(-c3cnc4[nH]nc(-c5ccc(S(N)(=O)=O)c(Cl)c5)c4c3)cc2CC1` (stereo partly drawn) [Example 93, 2-Chloro-4-(5-(7-methyl-7-((R)-2-methylpyrrolidin-1-yl)-6,7,8,9-tetrahydro-5H-benzo[7]annulen-2-yl)-1H-pyrazolo[3,4-b]pyridin-3-yl)benzenesulfonamide] was under 100 nM.
